Data taken from a melting point compilation (Tetko et al.; mined from patent text by program, amines drawn as free bases though some values may be those of a salt).
Residues, ends and D or L forms follow the SMILES beside them. *: point of attachment. Boc = CC(C)(C)OC(=O)*

`CCOC(=O)c1cn(-c2ccc(F)cc2)c2cc(-c3ccncc3)ccc2c1=O` gave a melting point of 252 to 253 °C.
Work on `CCNc1ccc(C(=O)CBr)cc1S(N)(=O)=O` yielded a melting point of 156 to 157 °C.
Compound `CC(=O)C(C#N)c1ccc(F)cc1` (stereo not given) has a melting point of 77 to 83 °C.
Work on `CC(=O)Nc1ccc(OCCOC(=O)CCCNC(=O)c2cc(OCc3ccccc3)ccc2OCc2ccccc2)cc1` yielded a melting point of 141 to 143 °C.
Work on `CC1(C)OC(=S)Nc2ccc(-c3cccc(CC#N)n3)cc21` yielded a melting point of 215 to 217 °C.
`CC(=O)Nc1c([N+](=O)[O-])cc([N+](=O)[O-])c2c1CCCC2` showed a melting point of 203 °C.
`CCOC(=O)CSCc1nc(NCc2ccc(OC)c(Cl)c2)c2c3c(sc2n1)CCCC3` showed a melting point of 158 to 160 °C.
For `Cc1cc(OCCCC#Cc2ccc(OC(F)(F)F)cc2)ccc1OCC(=O)O`, the melting point was 125 to 127 °C.
For `COC(=O)Nc1nc(-c2ccccc2)c(-c2nc3ccccc3c(=O)n2-c2ccc(OC)cc2)s1`, the melting point was 272 to 274 °C.
`O=C1[C@H]2CCC[C@H]2N(C(=O)CCCCl)c2ccccc2N1Cc1ccccc1` (relative stereo) showed a melting point of 169 to 170 °C.
In the case of `CCN1c2cc(N)ccc2N(C)C(=O)c2cccnc21`, the melting point is reported as 193 to 195 °C.
`COc1cc(OC)nc(Oc2ccc(N)nc2C(=O)ON=C(C)C)n1` gave a melting point of 210 to 214 °C.
Work on `CCCn1c(=O)c2[nH]c(C(C)(C)C)nc2n(CCNC(C)=O)c1=O` yielded a melting point of 194 to 195 °C.
`NC(=O)c1cc(-n2c(-c3ccccc3)cc3c2CCc2ccccc2-3)ccc1O` gave a melting point of 213 to 215 °C.
`CC1(c2ccccc2)OC(C=Cc2ccccn2)=CC1=O` (stereo not given) showed a melting point of 74.5 to 76 °C.
For `CC(C)C(C)(C(N)=O)N1C(=O)c2ccccc2C1=O` (stereo not given), the melting point was 118 to 119 °C.
With `CN(C)CCn1c(=O)c2c3oc4ccccc4oc3c3[nH]c4ccc(O)cc4c3c2c1=O` the melting point was greater than 360 °C.
For `Cc1ccc(NS(=O)(=O)c2ccc(N3CCNC3=O)cc2)cc1`, the melting point was 218 to 220 °C.
For `CC1CC2=CC(=O)CCC2C2C(Cl)CC3(C)C(=O)CCC3C12` (stereo not given), the melting point was 215 °C.
`Cn1c2c(c3ccccc31)Cc1ccccc1-2` showed a melting point of 152 °C.
Work on `COC(=O)C(C(=O)OC)c1cccc2c1NC(=O)C2` yielded a melting point of 161 to 162 °C.
Compound `CC1(C)OC(=O)C(=[N+]=[N-])C(=O)O1` has a melting point of 93 to 94 °C.
In the case of `CC(C)(C)C(=O)C(Cl)Oc1ccc(-c2ccccc2)cc1` (stereo not given), the melting point is reported as 185 to 190 °C.
For `CNc1ccc(C#Cc2cccc(-c3nc(NC)nc4cc(OC)c(OC)cc34)c2)cn1`, the melting point was 136 to 138 °C.
Work on `CCOC(=O)C1(CC(N)=O)C(=O)N2CCOc3cc(Cl)cc1c32` (stereo not given) yielded a melting point of 227 to 229 °C.
In the case of `CN(c1cccc2cc(C3=NCC(CC(=O)NCCO)S3)[nH]c12)S(=O)(=O)c1cccs1` (stereo not given), the melting point is reported as 214 °C.
`CCOC(=O)C(Cl)N=Nc1ccccc1C(=O)c1ccccn1` (stereo not given) showed a melting point of 123 to 125 °C.
`Cc1nc(C)c(-c2ccnc(Nc3ccc(N4CCCC4)cc3)n2)s1` gave a melting point of 192 to 193 °C.
`CCOC(=O)c1c(C)nc(Cl)c([N+](=O)[O-])c1Cl` gave a melting point of 45 to 46 °C.
Work on `O=C1N(CC2CCCO2)c2cc3c(cc2C12COc1cc4c(cc12)CCO4)OCCO3` (stereo not given) yielded a melting point of 220 to 225 °C.
Work on `O=C1Nc2cc(C(F)(F)F)ccc2C1c1ncnc2c1cnn2C1CCCCC1` (stereo not given) yielded a melting point of 277 to 280 °C.
`CC(C)(C)OC(=O)NCCCCCn1c(=O)c2cccc3ncc(c1=O)n32` showed a melting point of 82 to 83 °C.
Compound `CCn1c(=O)c(C(=O)O)c(N)c2cccnc21` has a melting point of 245 to 248 °C.
With `O=C1OCN(C(=O)OCc2ccccc2)[C@H]1CCCl` the melting point was 75 to 77 °C.
For `CC1(C)C=C(C(=O)NCC2COC(C)(C)O2)C(C)(C)N1` (stereo not given), the melting point was 55 to 57 °C.
With `Cc1nnc2n1-c1ccc(Cl)cc1C(=S)NC2` the melting point was 298 to 303 °C.
`Cc1ccc(N2CCN(c3c(C)c(C)c4c(c3C)CC(C)(C)O4)CC2)cc1C` showed a melting point of 137 to 139 °C.
In the case of `CC(C)(C)c1ccc([N+]([O-])=S)cc1`, the melting point is reported as 40 to 43 °C.
With `COc1cc(CO)c(-c2ccc(OCCC(C)CCCC(C)C)cc2)cc1CO` (stereo not given) the melting point was 101 °C.
For `CC(C)(C)NC(=O)[C@@H]1C[C@H](N2CCOCC2)CN1C(=O)OC(C)(C)C`, the melting point was 172 to 173 °C.
For `CO/C=C(/C(=O)OC)c1ccccc1Oc1cc(Cl)nc(Cl)n1`, the melting point was 88 to 90 °C.
`Cc1cc(C(=O)N2Cc3cccn3Cc3ccccc32)ccc1C1=CC(C)(C)CC(C)(C)C1` gave a melting point of 118 to 120 °C.
With `O=C(c1ccc(Cl)cc1)c1ccc2nccc(C(=O)O)c2c1` the melting point was greater than 260 °C.
Work on `ON=CC12CCCN(CCC1)C2` yielded a melting point of 115 to 117 °C.
Work on `CCOC(=O)CCSC(CC)=NNC(N)=O` yielded a melting point of 63.5 to 64.5 °C.
`CCOC(=O)c1ccc(N2CCC(NCC(O)COc3ccc(N)nc3)CC2)nc1` (stereo not given) showed a melting point of 120 to 122 °C.
`CCOC(=O)N1CCn2c(nc(-c3ccncn3)cc2=O)C(NC(=O)c2ccc(-c3cnn(C)c3)cc2)C1` (stereo not given) gave a melting point of 265 to 267 °C.
`O=C(C1CCC1)N1C[C@@H](c2c[nH]c3ccccc23)[C@H](c2cn3c4c(cccc24)CCC3)C1` gave a melting point of 253 to 255 °C.
For `O=C(O)CCCCOc1ccccc1OCc1ccccc1`, the melting point was 74 to 75 °C.
`Cc1csc(NC(=O)c2ccc(CN3CCN(c4nc(C)cs4)C3=O)cc2)n1` showed a melting point of 197 to 198 °C.
`CC(C)(C)OC(=O)N1CC(CCl)c2c1cc(OCc1ccccc1)c1ncccc21` (stereo not given) gave a melting point of 178 to 179 °C.
For `O=c1ccc(Cl)cn1[C@@H]1c2ccccc2OCC[C@H]1O` (relative stereo), the melting point was 176 to 178 °C.
`c1ccc(CCc2ccc[nH]2)cc1` gave a melting point of 40 to 42 °C.
`CC(c1cccnc1)C(O)(Cn1cncn1)c1ccc(F)cc1F` (stereo not given) gave a melting point of 113 to 114 °C.
For `COc1ccc(C=O)cc1OCC(F)F`, the melting point was 66 to 68 °C.
With `COC(=O)c1ccc(NCCNC(=O)C2Cc3ccccc3N2S(=O)(=O)c2ccc(-c3cc(C(F)(F)F)ccc3Cl)cc2)cc1` (stereo not given) the melting point was 96 to 98 °C.
Work on `CC(C)(C)c1ccc(-c2csc(-c3cccc(C(=O)O)c3)n2)cc1` yielded a melting point of 250 to 251 °C.
`CCN(CC)CCNC(=O)Cn1cc(-c2ccccc2)c(-c2ccccc2)n1` gave a melting point of 80 to 83 °C.
`Cc1nc2ccccn2c1-c1csc(Nc2ccc(C(=O)Nc3ccccc3N)cc2)n1` gave a melting point of 161 to 165 °C.
`OC(c1cccc(F)c1)C1CCCCN1` (stereo not given) gave a melting point of 146 to 148 °C.
Work on `O=C(Nc1nc(C(Cl)(Cl)Cl)ns1)c1ccc([N+](=O)[O-])cc1` yielded a melting point of 214 °C.
In the case of `CCc1c(C(C)C)nc(C(C)C)c(C(C)O)c1-c1ccc(F)cc1O` (stereo not given), the melting point is reported as 190 to 191 °C.
`Fc1ccccc1-c1nc2ncccc2o1` gave a melting point of 126 to 127 °C.
Compound `CCN(C)c1nc2cc(NC(=O)OC(C)(C)C)ccn2n1` has a melting point of 181 to 183 °C.
`Nc1ccc2c3c1c(=O)c(C(=O)O)cn3CCC2` showed a melting point greater than 300 °C.
`Cc1cccc(NC(=O)NC2CN(C(=O)NC3CCCCC3)c3ccccc3N(CC(=O)c3ccccc3C)C2=O)c1` (stereo not given) gave a melting point of 117 to 119 °C.
For `CC(C)(C)OC(=O)NC1CCCCCC=CC2CC2(C(=O)NS(=O)(=O)C2CC2)NC(=O)C2CC(OC(=O)c3cnccn3)CN2C1=O` (stereo not given), the melting point was 150 to 152 °C.
In the case of `O=C(O)Cc1c(C(=O)O)c2cc(Oc3ccc(Cl)c(F)c3)ccc2n1-c1ccccc1`, the melting point is reported as 174 to 176 °C.
Compound `NC(=O)N1CCC[C@@H]1C#CCN1CCCC1` has a melting point of 117 to 122 °C.
Work on `CC(S)C(Cc1ccccc1)C(=O)Nc1cccc(C(=O)O)c1` (stereo not given) yielded a melting point of 192 to 196 °C.
`O=C(O)c1ccccc1C(=O)c1ccc(N2CCOCC2)cc1O` showed a melting point of 184 to 187 °C.
`COc1ccc(Br)c2c1CC(NC(C1CC1)C1CC1)CC2` (single isomer, unassigned; (-)) showed a melting point of 153 to 154 °C.
`CCCCCCc1cc(C=O)c(O)cc1O` showed a melting point of 108 to 110 °C.
`CC1(c2ccc(F)c(S(N)(=O)=O)c2)OCCO1` gave a melting point of 149 to 150 °C.
`CCc1cccc(Nc2ncnc3cc(OCc4ccccc4)c(OCCOC)cc23)c1` showed a melting point of 156 to 157 °C.
With `CN1C(=O)C(c2ccncc2)(c2ccc(OC(F)F)cc2)N=C1N` (stereo not given) the melting point was 193 to 195 °C.
In the case of `CCn1c(=O)c2nc(C=NO)cn2c2ccccc21`, the melting point is reported as 286 to 288 °C.
Compound `Cc1nc(N2CCN(CC(C)C)C2=O)sc1C(=O)NCc1cocn1` has a melting point of 115 to 118 °C.
Work on `COc1ccc(CNc2cc3c(Nc4ccc(OCc5ccccn5)c(Cl)c4)ncnc3cn2)cc1` yielded a melting point of 182 to 184 °C.
`CS(=O)(=O)Nc1cc(C(c2cc(F)ccc2F)S(=O)(=O)c2ccc(F)cc2)c(Cl)cn1` (stereo not given) showed a melting point of 178 to 179 °C.
`CSc1nn2c(Cl)cc(C)nc2c1S(=O)(=O)c1ccc(C)cc1` showed a melting point of 197 to 198 °C.
Compound `CCOC(=O)[C@H](Cc1ccc(O)cc1)NC(=O)C1(NC(=O)[C@@H](SC(=O)C2CCCC2)C(C)C)CCCC1` has a melting point of 130 to 131 °C.
Work on `O=C(O)COc1cccc2c1CCC(Cc1nc(C(c3ccccc3)c3ccccc3)co1)C2` (stereo not given) yielded a melting point of 130 to 132 °C.
For `C=C1C=Cc2cc(C(=O)Nc3ccccc3)ccc2OC1`, the melting point was 139 °C.
`CS(=O)(=O)c1ccc2c(c1)[nH]c(=S)n2NC(=O)c1ccc(Cl)c(S(N)(=O)=O)c1` showed a melting point of 298 to 300 °C.
Work on `CN1CCN(C2=Nc3ccccc3S(=O)(=O)N2)CC1` yielded a melting point of 265 to 267 °C.
`CCCON=C(C(=O)OCC)c1csc(N)n1` gave a melting point of 142 to 144 °C.
Work on `CCOC(=O)c1cn(C2CC2)c2c(F)c(NCC(O)CO)c(F)cc2c1=O` (stereo not given) yielded a melting point of 173 to 175 °C.
Compound `CC(C)CC(NC(=O)C(Cc1ccc(O)cc1)NC(=O)OC(C)(C)C)C(=O)NCC(=O)O` (stereo not drawn) (Boc-Tyr-Leu-Gly-OH; configuration not given here) has a melting point of 189 to 190 °C.
Work on `CCOC(=O)Cc1c(-c2ccccc2)c2cc(C)c(Cl)cc2oc1=O` yielded a melting point of 132 to 133 °C.
`CCCCCOc1nc(N)nc2c1ncn2C1C=CC(CO)C1` (stereo not given) showed a melting point of 139 to 141 °C.
For `CC(=O)c1nc(-c2ccccc2)oc1C`, the melting point was 74 to 76 °C.
Work on `CN(C)C=C(C#N)C(=O)NCc1ccccc1` yielded a melting point of 160 to 161 °C.
With `Cn1c(CC#N)ccc1C(=O)c1ccc(Cl)cc1Cl` the melting point was 129 to 130 °C.
With `N=c1cc(NC(=S)NCc2ccccc2)nc2n1CCCS2` the melting point was 189 to 190 °C.
With `CCOc1cc(C(=CC#N)c2ccc(OC)c(C)c2)ccc1OC` the melting point was 86 to 88 °C.
In the case of `C=C1NC(Nc2ccccc2)=C(C(=O)OCC)C(NN)=C1C#N`, the melting point is reported as 174 to 176 °C.
`CN1CCN(c2ccc(S(=O)(=O)c3ccccc3)c3ccccc23)CC1` showed a melting point of 71 to 72 °C.
`COC(=O)c1cc(CBr)ccc1[N+](=O)[O-]` gave a melting point of 55 to 56 °C.
With `COC(=O)c1nc(Cl)c(F)c(N)c1Cl` the melting point was 128 to 131 °C.
